pIC50: −log10 of the molar value.
Legend:
[1] = target: T1, PI3K-α (PIK3CA) wild-type (WT), p110α/p85α complex (Homo sapiens, UniProt P42336); assay: PI3K-alpha kinase (PIK3CA) biochemical activity, ADP-Glo, wild-type; conditions: Soy PI lipid substrate
T1 construct: Recombinant, catalytically active human full length PIK3KA Wild-type and H1047R mutant; 6×His (N); purchased EMD Millipore Sigma 14-602M
How it was run: (§1)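 ADP formation measured by ADP-Glo luminescence after reaction at 27 °C to about 10% ATP turnover, using 20 uM ATP, 50 uM PIP2diC8 or soy PI lipid, HEPES pH 7.4 with MgCl2. Enzyme (1-5 nM WT or H1047R p110α/p85α) and compound preincubated 1 h first; 10-point 1:3 curves fitted four-parameter for IC50.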

[2] = target: T2, PI3K-α (PIK3CA) H1047R mutant, p110α/p85α complex (Homo sapiens, UniProt P42336, H1047R); assay: PI3K-alpha kinase (PIK3CA) biochemical activity, ADP-Glo, H1047R mutant; conditions: Soy PI lipid substrate
T2 construct: Recombinant, catalytically active human full length PIK3KA Wild-type and H1047R mutant; 6×His (N); purchased EMD Millipore Sigma 14-792M
T2 sequence (P42336 whole entry H1047R): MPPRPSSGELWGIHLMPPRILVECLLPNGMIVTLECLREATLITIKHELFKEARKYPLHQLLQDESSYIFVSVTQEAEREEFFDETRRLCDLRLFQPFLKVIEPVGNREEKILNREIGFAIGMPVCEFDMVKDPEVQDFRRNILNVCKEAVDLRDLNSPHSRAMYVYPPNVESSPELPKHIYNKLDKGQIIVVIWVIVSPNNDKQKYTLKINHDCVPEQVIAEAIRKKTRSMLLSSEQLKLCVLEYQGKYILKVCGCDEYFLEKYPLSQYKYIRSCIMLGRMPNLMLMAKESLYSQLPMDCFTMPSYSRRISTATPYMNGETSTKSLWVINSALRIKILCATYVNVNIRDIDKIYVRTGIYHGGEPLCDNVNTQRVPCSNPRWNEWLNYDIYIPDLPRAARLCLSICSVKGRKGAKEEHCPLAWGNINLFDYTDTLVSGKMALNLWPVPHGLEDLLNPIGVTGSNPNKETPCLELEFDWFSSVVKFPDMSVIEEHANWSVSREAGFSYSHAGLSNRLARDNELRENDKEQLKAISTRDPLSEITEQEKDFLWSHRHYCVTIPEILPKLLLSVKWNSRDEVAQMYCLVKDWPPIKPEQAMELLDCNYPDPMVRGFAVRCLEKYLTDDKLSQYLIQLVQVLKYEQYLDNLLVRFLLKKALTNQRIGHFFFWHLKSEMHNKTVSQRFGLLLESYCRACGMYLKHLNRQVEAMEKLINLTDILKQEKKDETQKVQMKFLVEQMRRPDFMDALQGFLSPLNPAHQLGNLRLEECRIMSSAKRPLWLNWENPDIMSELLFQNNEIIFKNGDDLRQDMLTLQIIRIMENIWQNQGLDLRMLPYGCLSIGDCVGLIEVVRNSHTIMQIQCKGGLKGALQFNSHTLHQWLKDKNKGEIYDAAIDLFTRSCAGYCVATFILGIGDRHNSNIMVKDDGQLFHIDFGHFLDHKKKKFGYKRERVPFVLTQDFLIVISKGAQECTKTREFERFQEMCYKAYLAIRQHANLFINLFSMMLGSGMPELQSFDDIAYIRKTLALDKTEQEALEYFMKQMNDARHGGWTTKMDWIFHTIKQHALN
T2 sequence (P27986 whole entry partner): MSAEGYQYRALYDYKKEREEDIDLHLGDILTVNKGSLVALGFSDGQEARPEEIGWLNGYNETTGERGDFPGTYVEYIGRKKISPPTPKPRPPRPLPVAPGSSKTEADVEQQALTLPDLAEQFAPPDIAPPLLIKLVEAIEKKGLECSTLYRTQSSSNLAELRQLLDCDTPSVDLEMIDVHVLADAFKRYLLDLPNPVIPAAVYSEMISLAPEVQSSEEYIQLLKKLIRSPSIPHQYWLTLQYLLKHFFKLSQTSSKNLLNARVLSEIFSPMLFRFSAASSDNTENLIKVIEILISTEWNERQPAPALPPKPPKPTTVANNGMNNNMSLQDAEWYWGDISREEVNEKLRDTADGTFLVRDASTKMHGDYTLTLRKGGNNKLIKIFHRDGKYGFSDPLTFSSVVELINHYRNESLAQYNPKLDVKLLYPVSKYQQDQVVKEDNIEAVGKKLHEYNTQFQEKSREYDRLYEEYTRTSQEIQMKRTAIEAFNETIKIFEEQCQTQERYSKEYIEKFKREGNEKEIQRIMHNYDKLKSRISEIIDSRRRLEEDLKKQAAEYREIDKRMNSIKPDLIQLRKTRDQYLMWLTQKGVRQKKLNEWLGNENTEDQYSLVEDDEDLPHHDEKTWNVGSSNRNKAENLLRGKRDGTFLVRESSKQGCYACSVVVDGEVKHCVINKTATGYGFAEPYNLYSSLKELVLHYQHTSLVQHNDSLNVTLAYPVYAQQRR
How it was run: as §1

Structure (SMILES) | pIC50 [1] | pIC50 [2]
Cc1cc(C(C)Nc2ccc(C)nc2C(=O)O)c2oc(-c3ccc4nn(C)cc4c3)cc(=O)c2c1 (single isomer, unassigned) [Example 180, 6-Methyl-3-[1-[6-methyl-2-(2-methylindazol-5-yl)-4-oxo-chromen-8-yl]ethylamino]pyridine-2-carboxylic acid] | 5.30 to 6.00 | > 6.30
Cc1cc(C(C)Nc2ccc(Cl)nc2C(=O)O)c2oc(-c3ccc4nn(C)cc4c3)c(C)c(=O)c2c1 (single isomer, unassigned) [Example 181, 6-Chloro-3-[1-[3,6-dimethyl-2-(2-methylindazol-5-yl)-4-oxo-chromen-8-yl]ethylamino]pyridine-2-carboxylic acid] | > 6.30 | > 6.30
Cc1cc(C(C)Nc2ccc(Cl)c(F)c2C(=O)O)c2oc(-c3c(C)nc4ccccn34)cc(=O)c2c1 (single isomer, unassigned) [Example 182, 3-Chloro-2-fluoro-6-[1-[6-methyl-2-(2-methylimidazo[1,2-a]pyridin-3-yl)-4-oxo-chromen-8-yl]ethylamino]benzoic acid] | 5.30 to 6.00 | > 6.30
Cc1cc(C(C)Nc2ccc(Cl)c(F)c2C(=O)O)c2oc(-c3ccc4nc(C)cn4c3)cc(=O)c2c1 (single isomer, unassigned) [Example 183, 3-chloro-2-fluoro-6-[1-[6-methyl-2-(2-methylimidazo[1,2-a]pyridin-6-yl)-4-oxo-chromen-8-yl]ethylamino]benzoic acid] | 6.00 to 6.30 | > 6.30
Cc1cc(C(C)Nc2ccc(Cl)c(F)c2C(=O)O)c2oc(-c3ccc4nn(C)cc4c3)cc(=O)c2c1 (single isomer, unassigned) [Example 184, 3-Chloro-2-fluoro-6-[1-[6-methyl-2-(2-methylindazol-5-yl)-4-oxo-chromen-8-yl]ethylamino]benzoic acid] | 6.00 to 6.30 | > 6.30
Cc1cc(C(C)Nc2ccccc2C(=O)O)c2oc(-c3ccc4nc(C(F)(F)F)cn4c3)c(C)c(=O)c2c1 (single isomer, unassigned) [Example 186, 2-[1-[3,6-Dimethyl-4-oxo-2-[2-(trifluoromethyl)imidazo[1,2-a]pyridin-6-yl]chromen-8-yl]ethylamino]benzoic acid] | 5.30 to 6.00 | > 6.30
CC(Nc1ccc(Cl)nc1C(=O)O)c1cc(C(F)(F)F)cc2c(=O)cc(-c3cc(Cl)c4nn(C)cc4c3)oc12 (single isomer, unassigned) [Example 194, 6-Chloro-3-[1-[2-(7-chloro-2-methyl-indazol-5-yl)-4-oxo-6-(trifluoromethyl)chromen-8-yl]ethylamino]pyridine-2-carboxylic acid] | 6.00 to 6.30 | 6.00 to 6.30
Cc1cc(C(C)Nc2ccc(Cl)nc2C(=O)O)c2oc(-c3ccc4nn(C)cc4c3)cc(=O)c2c1 (single isomer, unassigned) [Example 206, 6-Chloro-3-[1-[6-methyl-2-(2-methylindazol-5-yl)-4-oxo-chromen-8-yl]ethylamino]pyridine-2-carboxylic acid] | > 6.30 | > 6.30
Cc1cc(C(C)Nc2ccccc2C(=O)O)c2oc(-c3ccc4nn(C)cc4c3)c(C(F)(F)F)c(=O)c2c1 (single isomer, unassigned) [Example 208, 2-[1-[6-Methyl-2-(2-methylindazol-5-yl)-4-oxo-3-(trifluoromethyl)chromen-8-yl]ethylamino]benzoic acid] | > 6.30 | > 6.30
Cc1cc(C(C)Nc2ccccc2C(=O)O)c2oc(-c3cnn4cccnc34)cc(=O)c2c1 (stereo not shown) [Example 6, 2-[1-(6-Methyl-4-oxo-2-pyrazolo[1,5-a]pyrimidin-3-yl-chromen-8-yl)ethylamino]benzoic acid] | 5.30 to 6.00 | > 6.30
Cc1cc(C(C)Nc2ccccc2C(=O)O)c2oc(-c3cnn4ccccc34)cc(=O)c2c1 (stereo not shown) [Example 10, 2-[1-(6-Methyl-4-oxo-2-pyrazolo[1,5-a]pyridin-3-yl-chromen-8-yl)ethylamino]benzoic acid] | 5.30 to 6.00 | > 6.30

From patent US11878970B2, “Allosteric chromenone inhibitors of phosphoinositide 3-kinase (PI3K) for the treatment of disease” (Petra Pharma Corporation, priority 2021, dated 2024)
